In patent US20060084704A1, “Methods and compositions for enhancing degradation of nuclear receptor transcription factors and uses thereof” (priority 2004, published 2006):

Columns and labels:
LNCaP cells = assay: LNCaP growth assay (cell count); type: cell-based, human
Experimental: LNCaP cells express an endogenous mutant AR that is found in prostate cancer patients. This clinically relevant cell model was used to study JC9's effect in suppressing prostate cancer cell growth. Cells were plated at a density of 6.3×10^4 cells/well in 6-well tissue culture dishes. Two days later, the complete medium was aspired and 10% charcoal/dextran-treated (hormone depleted) serum-containing medium was added. Test compounds, JC9 and hydroxyflutamide (HF) were then added to the medium at a final concentration of 5 μM with or without 1 nM of DHT. For vehicle control, the same amount of DMSO was added. For the subsequent 5 days, the medium was aspired once per day, and fresh medium containing test compounds and/or DHT was added. At designated times, a portion of cells was harvested by trypsinization, and cell count was performed using a hemacytometer.

[1] = tested on: testosterone-induced hair growth suppression; assay: Androgen-induced alopecia model, hair re-growth in shaved mice; type: in vivo, C57BL/6J mice; details: topical testosterone 1% in the morning, control solution in the afternoon, 20 days
Experimental: C57BL/6J mice were used in this animal model for hair loss and regrowth (Uno et al. (1990) J. Cutaneous Aging & Cosm. Derm., 1: 193, which is incorporated by reference in its entirety herein). Six-week-old male mice (6 to 7 animals per group) were shaved with an electric clipper, and then treated with a hair-removal cream for 1 to 2 minutes. […] One day after hair removal, a first group of animals each received 100 microliters of a 1% testosterone solution in ethanol, applied topically to the shaved area, once each morning for twenty consecutive days. A second group of animals each received 100 microliters of vehicle (ethanol) alone, applied topically to the shaved area, once each morning for twenty consecutive days. The first group of mice (testosterone-treated) were divided further into a control group and a treatment group. Also beginning one day after hair removal, each mouse in the control group received 100 microliters of a control solution (60% ethanol, 20% propylene glycol, and 20% water) and each mouse in the treatment group received 100 microliters of the test compound, JC9 (0.02% in the same 60% ethanol, 20% propylene glycol, and 20% water solution), applied topically to the shaved area, once each afternoon for twenty consecutive days. Hair re-growth in the shaved areas was observed and photographed at 12, 15, 18, 21, and 24 days after beginning of the topical treatments.

## C[C@]12CCC(=O)C[C@@H]1CC[C@@H]1[C@@H]2CC[C@]2(C)[C@@H](O)CC[C@@H]12 [DHT, dihydrotestosterone]
LNCaP cells; 1 nM DHT, 4-5 days
  LNCaP cell growth with DHT alone: up-regulated LNCaP cell growth

## CC(C)(O)C(=O)Nc1ccc([N+](=O)[O-])c(C(F)(F)F)c1 [HF, hydroxyflutamide]
LNCaP cells; 5 μM, with 1 nM DHT, 5 days
  cell growth (cell number) in the presence of DHT: moderate activity to repress DHT-stimulated cell growth
LNCaP cells; 5 μM, without DHT, 5-day incubation
  cell growth (cell number): dramatic growth suppressing effect, however, was not detected

## C[C@]12CC[C@H]3[C@@H](CCC4=CC(=O)CC[C@@]43C)[C@@H]1CC[C@@H]2O [testosterone, reference compound]
[1]
  hair re-growth in shaved areas: little or no re-growth of hair
